# Results as given in PubChem BioAssay (NCI).
#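 Five concentrations, 48 hours, 96-well plates. TGI marks complete inhibition of growth.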
# What was measured:
# Experiment in all cases: growth of human tumour cells (NCI), 48 h
# OVCAR-5 ovarian = test system: OVCAR-5 ovarian
# HCC-2998 colon = test system: HCC-2998 colon
# OVCAR-3 ovarian = test system: OVCAR-3 ovarian
# SR leukemia = test system: SR leukemia
# SF-539 CNS = test system: SF-539 CNS
# NCI-H226 lung = test system: NCI-H226 lung
# OVCAR-8 ovarian = test system: OVCAR-8 ovarian
# HT29 colon = test system: HT29 colon
# NCI-H23 lung = test system: NCI-H23 lung
# SF-268 CNS = test system: SF-268 CNS
# UACC-257 melanoma = test system: UACC-257 melanoma
# ACHN renal = test system: ACHN renal
# 786-0 renal = test system: 786-0 renal
# LOX IMVI melanoma = test system: LOX IMVI melanoma
# SK-MEL-2 melanoma = test system: SK-MEL-2 melanoma
# DLD-1 colon = test system: DLD-1 colon
# SN12C renal = test system: SN12C renal
# SK-MEL-28 melanoma = test system: SK-MEL-28 melanoma
# RPMI-8226 leukemia = test system: RPMI-8226 leukemia
# HCT-116 colon = test system: HCT-116 colon
# IGROV1 ovarian = test system: IGROV1 ovarian
# SNB-19 CNS = test system: SNB-19 CNS
# OVCAR-4 ovarian = test system: OVCAR-4 ovarian
# A549 NSCLC = test system: A549 NSCLC
# HL-60(TB) leukemia = test system: HL-60(TB) leukemia
# EKVX NSCLC = test system: EKVX NSCLC
# K-562 leukemia = test system: K-562 leukemia
# XF 498 CNS = test system: XF 498 CNS
# U251 CNS = test system: U251 CNS
# HOP-18 NSCLC = test system: HOP-18 NSCLC
# RXF 393 renal = test system: RXF 393 renal
# SW-620 colon = test system: SW-620 colon
# HOP-62 NSCLC = test system: HOP-62 NSCLC
# NCI-H460 lung = test system: NCI-H460 lung
# SF-295 CNS = test system: SF-295 CNS
# TK-10 renal = test system: TK-10 renal
# KM12 colon = test system: KM12 colon
# MOLT-4 leukemia = test system: MOLT-4 leukemia
# LXFL 529 NSCLC = test system: LXFL 529 NSCLC
# KM20L2 colon = test system: KM20L2 colon
# DMS 114 small cell lung = test system: DMS 114 small cell lung
# CCRF-CEM leukemia = test system: CCRF-CEM leukemia
# SK-OV-3 ovarian = test system: SK-OV-3 ovarian
# SNB-75 CNS = test system: SNB-75 CNS
# DMS 273 small cell lung = test system: DMS 273 small cell lung
# M19-MEL melanoma = test system: M19-MEL melanoma
# HOP-92 NSCLC = test system: HOP-92 NSCLC
# COLO 205 colon = test system: COLO 205 colon
# UO-31 renal = test system: UO-31 renal
# UACC-62 melanoma = test system: UACC-62 melanoma
# SK-MEL-5 melanoma = test system: SK-MEL-5 melanoma
# M14 melanoma = test system: M14 melanoma
# RXF-631 renal = test system: RXF-631 renal
# MALME-3M melanoma = test system: MALME-3M melanoma
# HCT-15 colon = test system: HCT-15 colon
# NCI-H522 lung = test system: NCI-H522 lung
# BT-549 breast = test system: BT-549 breast
# PC-3 prostate = test system: PC-3 prostate
# MDA-MB-231 breast = test system: MDA-MB-231 breast
# MCF7 breast = test system: MCF7 breast
# MDA-MB-435 = test system: MDA-MB-435
# CAKI-1 renal = test system: CAKI-1 renal
# A498 renal = test system: A498 renal
# MDA-N = test system: MDA-N
# DU-145 prostate = test system: DU-145 prostate
# HS 578T breast = test system: HS 578T breast
# NCI/ADR-RES ovarian = test system: NCI/ADR-RES ovarian
# SNB-78 CNS = test system: SNB-78 CNS
smiles,measurement,setting,value
O=C(NCc1ccc2ccc3cccnc3c2n1)c1ccc[n+](Cc2ccccc2)c1,TGI,OVCAR-5 ovarian,> 100 µM
same,TGI,HCC-2998 colon,> 100 µM
same,TGI,OVCAR-3 ovarian,> 100 µM
same,TGI,SR leukemia,> 100 µM
same,TGI,SF-539 CNS,> 100 µM
same,TGI,NCI-H226 lung,> 100 µM
same,TGI,OVCAR-8 ovarian,> 100 µM
same,TGI,HT29 colon,> 100 µM
same,TGI,NCI-H23 lung,> 100 µM
same,TGI,SF-268 CNS,> 100 µM
same,TGI,UACC-257 melanoma,> 100 µM
same,TGI,ACHN renal,> 100 µM
same,TGI,786-0 renal,> 100 µM
same,TGI,LOX IMVI melanoma,> 100 µM
same,TGI,SK-MEL-2 melanoma,> 100 µM
same,TGI,DLD-1 colon,> 100 µM
same,TGI,SN12C renal,> 100 µM
same,TGI,SK-MEL-28 melanoma,> 100 µM
same,TGI,RPMI-8226 leukemia,> 100 µM
same,TGI,HCT-116 colon,> 100 µM
same,TGI,IGROV1 ovarian,> 100 µM
same,TGI,SNB-19 CNS,> 100 µM
same,TGI,OVCAR-4 ovarian,> 100 µM
same,TGI,A549 NSCLC,> 100 µM
same,TGI,HL-60(TB) leukemia,> 100 µM
same,TGI,EKVX NSCLC,> 100 µM
same,TGI,K-562 leukemia,> 100 µM
same,TGI,XF 498 CNS,> 100 µM
same,TGI,U251 CNS,> 100 µM
same,TGI,HOP-18 NSCLC,> 100 µM
same,TGI,RXF 393 renal,> 100 µM
same,TGI,SW-620 colon,> 100 µM
same,TGI,HOP-62 NSCLC,> 100 µM
same,TGI,NCI-H460 lung,> 100 µM
same,TGI,SF-295 CNS,> 100 µM
same,TGI,TK-10 renal,> 100 µM
same,TGI,KM12 colon,> 100 µM
same,TGI,MOLT-4 leukemia,> 100 µM
same,TGI,LXFL 529 NSCLC,> 100 µM
same,TGI,KM20L2 colon,> 100 µM
same,TGI,DMS 114 small cell lung,> 100 µM
same,TGI,CCRF-CEM leukemia,> 100 µM
same,TGI,SK-OV-3 ovarian,> 100 µM
same,TGI,SNB-75 CNS,> 100 µM
same,TGI,DMS 273 small cell lung,> 100 µM
same,TGI,M19-MEL melanoma,> 100 µM
same,TGI,HOP-92 NSCLC,> 100 µM
same,TGI,COLO 205 colon,> 100 µM
same,TGI,UO-31 renal,> 100 µM
same,TGI,UACC-62 melanoma,> 100 µM
same,TGI,SK-MEL-5 melanoma,> 100 µM
same,TGI,M14 melanoma,> 100 µM
same,TGI,RXF-631 renal,> 100 µM
same,TGI,MALME-3M melanoma,> 100 µM
same,TGI,HCT-15 colon,> 100 µM
same,TGI,NCI-H522 lung,> 100 µM
CC(C)=C1CCC(CN2CCOCC2)C1=O (stereo unspecified),TGI,OVCAR-5 ovarian,32.5 µM
same,TGI,HCC-2998 colon,29.3 µM
same,TGI,OVCAR-3 ovarian,18.4 µM
same,TGI,BT-549 breast,31.8 µM
same,TGI,PC-3 prostate,34.1 µM
same,TGI,SR leukemia,11.2 µM
same,TGI,SF-539 CNS,31.9 µM
same,TGI,MDA-MB-231 breast,31.5 µM
same,TGI,MCF7 breast,22.5 µM
same,TGI,NCI-H226 lung,46.1 µM
same,TGI,OVCAR-8 ovarian,27.8 µM
same,TGI,HT29 colon,20.4 µM
same,TGI,NCI-H23 lung,36.7 µM
same,TGI,MDA-MB-435,29.4 µM
same,TGI,SF-268 CNS,45 µM
same,TGI,UACC-257 melanoma,32.5 µM
same,TGI,ACHN renal,23 µM
same,TGI,786-0 renal,11.2 µM
same,TGI,LOX IMVI melanoma,41.9 µM
same,TGI,SK-MEL-2 melanoma,36.6 µM
same,TGI,DLD-1 colon,10.8 µM
same,TGI,CAKI-1 renal,0.908 µM
same,TGI,SN12C renal,16.7 µM
same,TGI,SK-MEL-28 melanoma,29.1 µM
same,TGI,RPMI-8226 leukemia,12.5 µM
same,TGI,HCT-116 colon,15.8 µM
same,TGI,IGROV1 ovarian,39.2 µM
same,TGI,SNB-19 CNS,> 91.9 µM
same,TGI,OVCAR-4 ovarian,15.6 µM
same,TGI,A549 NSCLC,43.1 µM
same,TGI,HL-60(TB) leukemia,14 µM
same,TGI,EKVX NSCLC,34.5 µM
same,TGI,K-562 leukemia,6.33 µM
same,TGI,XF 498 CNS,26.4 µM
same,TGI,U251 CNS,48.9 µM
same,TGI,HOP-18 NSCLC,23.8 µM
same,TGI,RXF 393 renal,5.47 µM
same,TGI,A498 renal,52.3 µM
same,TGI,SW-620 colon,4.26 µM
same,TGI,MDA-N,35.1 µM
same,TGI,DU-145 prostate,30.4 µM
same,TGI,HOP-62 NSCLC,> 93.5 µM
same,TGI,NCI-H460 lung,59 µM
same,TGI,HS 578T breast,> 100 µM
same,TGI,SF-295 CNS,> 100 µM
same,TGI,TK-10 renal,19 µM
same,TGI,KM12 colon,> 51.4 µM
same,TGI,MOLT-4 leukemia,5.54 µM
same,TGI,LXFL 529 NSCLC,6.25 µM
same,TGI,KM20L2 colon,31.4 µM
same,TGI,NCI/ADR-RES ovarian,40.8 µM
same,TGI,DMS 114 small cell lung,25 µM
same,TGI,CCRF-CEM leukemia,7.9 µM
same,TGI,SK-OV-3 ovarian,> 100 µM
same,TGI,SNB-75 CNS,18 µM
same,TGI,M19-MEL melanoma,> 58.9 µM
same,TGI,HOP-92 NSCLC,8.81 µM
same,TGI,SNB-78 CNS,30.3 µM
same,TGI,COLO 205 colon,16.9 µM
same,TGI,UO-31 renal,32.6 µM
same,TGI,UACC-62 melanoma,33 µM
same,TGI,SK-MEL-5 melanoma,30.7 µM
same,TGI,M14 melanoma,14.6 µM
same,TGI,RXF-631 renal,> 31 µM
same,TGI,MALME-3M melanoma,7 µM
same,TGI,HCT-15 colon,22 µM
same,TGI,NCI-H522 lung,0.163 µM
CC(=O)OC1C(O[C@H]2CC[C@]34O[C@]35CC[C@]3(C)C(C6(C)CC[C@@H](C(C)(C)O)O6)[C@@H](O)CC3(C)[C@@H]5CC(OC3OC(CO)C(O)C(O)C3O)C4C2(C)C)OCC(O)C1O (stereo partly specified),TGI,OVCAR-5 ovarian,> 100 µM
same,TGI,HCC-2998 colon,> 100 µM
same,TGI,OVCAR-3 ovarian,> 100 µM
same,TGI,SF-539 CNS,> 56.6 µM
same,TGI,NCI-H226 lung,> 100 µM
same,TGI,OVCAR-8 ovarian,> 100 µM
same,TGI,HT29 colon,> 100 µM
same,TGI,NCI-H23 lung,> 100 µM
same,TGI,SF-268 CNS,> 100 µM
same,TGI,UACC-257 melanoma,> 100 µM
same,TGI,ACHN renal,> 100 µM
same,TGI,786-0 renal,> 60.9 µM
same,TGI,LOX IMVI melanoma,> 59.3 µM
same,TGI,SK-MEL-2 melanoma,> 100 µM
same,TGI,DLD-1 colon,> 100 µM
same,TGI,CAKI-1 renal,> 100 µM
same,TGI,SN12C renal,> 100 µM
same,TGI,SK-MEL-28 melanoma,> 100 µM
same,TGI,RPMI-8226 leukemia,> 71.3 µM
same,TGI,HCT-116 colon,> 100 µM
same,TGI,IGROV1 ovarian,> 100 µM
same,TGI,SNB-19 CNS,> 100 µM
same,TGI,OVCAR-4 ovarian,> 100 µM
same,TGI,A549 NSCLC,> 100 µM
same,TGI,HL-60(TB) leukemia,> 53.3 µM
same,TGI,EKVX NSCLC,> 100 µM
same,TGI,K-562 leukemia,> 74.8 µM
same,TGI,XF 498 CNS,> 100 µM
same,TGI,U251 CNS,> 100 µM
same,TGI,HOP-18 NSCLC,> 100 µM
same,TGI,RXF 393 renal,> 100 µM
same,TGI,A498 renal,> 100 µM
same,TGI,SW-620 colon,> 49.3 µM
same,TGI,HOP-62 NSCLC,> 100 µM
same,TGI,NCI-H460 lung,> 100 µM
same,TGI,SF-295 CNS,> 100 µM
same,TGI,TK-10 renal,> 100 µM
same,TGI,KM12 colon,> 100 µM
same,TGI,MOLT-4 leukemia,> 100 µM
same,TGI,LXFL 529 NSCLC,> 100 µM
same,TGI,KM20L2 colon,> 100 µM
same,TGI,DMS 114 small cell lung,> 100 µM
same,TGI,CCRF-CEM leukemia,> 31.6 µM
same,TGI,SK-OV-3 ovarian,> 100 µM
same,TGI,SNB-75 CNS,> 100 µM
same,TGI,DMS 273 small cell lung,> 61.2 µM
same,TGI,M19-MEL melanoma,> 100 µM
same,TGI,HOP-92 NSCLC,> 100 µM
same,TGI,SNB-78 CNS,> 100 µM
same,TGI,COLO 205 colon,> 73.8 µM
same,TGI,UO-31 renal,> 100 µM
same,TGI,UACC-62 melanoma,> 100 µM
same,TGI,SK-MEL-5 melanoma,> 100 µM
same,TGI,M14 melanoma,> 100 µM
same,TGI,RXF-631 renal,> 100 µM
same,TGI,MALME-3M melanoma,> 100 µM
same,TGI,HCT-15 colon,> 57.8 µM
same,TGI,NCI-H522 lung,> 100 µM
